Data published in US11873298B2, “Compounds and uses thereof” (JANSSEN PHARMACEUTICA NV, priority 2017, dated 2024).

Experiments:
SCD1 = biological target: T1, SCD1 (Homo sapiens, UniProt O00767); assay: Growth inhibition of humanized yeast strain expressing SCD1 as sole desaturase; format: cell-based; settings: humanized yeast strain expressing SCD1
T1 construct: host or cells: S. cerevisiae ole1Δ strain (W303 pdr1Δ pdr3Δ background), plasmid pRS316 with TDH3 promoter and CYC1 terminator
T1 sequence (O00767 1-359): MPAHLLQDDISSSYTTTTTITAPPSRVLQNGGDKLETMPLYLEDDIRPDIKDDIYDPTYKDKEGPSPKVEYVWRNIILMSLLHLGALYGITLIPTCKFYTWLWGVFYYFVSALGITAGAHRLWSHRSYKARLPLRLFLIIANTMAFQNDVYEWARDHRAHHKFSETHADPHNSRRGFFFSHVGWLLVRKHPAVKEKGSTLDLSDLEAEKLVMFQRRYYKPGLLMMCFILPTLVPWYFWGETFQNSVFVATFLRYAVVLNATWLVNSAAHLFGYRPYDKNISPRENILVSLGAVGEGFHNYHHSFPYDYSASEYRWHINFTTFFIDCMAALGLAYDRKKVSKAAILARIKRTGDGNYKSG
Summary of the method: (§1)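 OD600 growth read-out. ole1Δ yeast, pdr1Δ pdr3Δ, with Ole1/SCD1/SCD5 on a plasmid; SX-Ura media throughout; 2× cell density 0.02 in CSM-Galactose; DMSO compound dilutions; humidified 30° C.; Ole1 stopped at 24 h, SCD1/SCD5 at 40 h.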

[1] = test system: yeast strains expressing the human α-synuclein; assay: Yeast α-synuclein toxicity rescue assay (OD600 growth); settings: 40 h; for EC50: read-out: α-Syn EC50; for Emax: read-out: α-Syn Emax
Ole1 = biological target: T2, Ole1 (Saccharomyces cerevisiae, UniProt P21147); assay: Growth inhibition of yeast strain expressing Ole1 as sole desaturase; format: cell-based; settings: yeast strain expressing Ole1 as sole desaturase
T2 construct: expressed in transfected cells; host or cells: S. cerevisiae ole1Δ strain (W303 pdr1Δ pdr3Δ background), plasmid pRS316 with TDH3 promoter and CYC1 terminator
T2 sequence (P21147 1-510): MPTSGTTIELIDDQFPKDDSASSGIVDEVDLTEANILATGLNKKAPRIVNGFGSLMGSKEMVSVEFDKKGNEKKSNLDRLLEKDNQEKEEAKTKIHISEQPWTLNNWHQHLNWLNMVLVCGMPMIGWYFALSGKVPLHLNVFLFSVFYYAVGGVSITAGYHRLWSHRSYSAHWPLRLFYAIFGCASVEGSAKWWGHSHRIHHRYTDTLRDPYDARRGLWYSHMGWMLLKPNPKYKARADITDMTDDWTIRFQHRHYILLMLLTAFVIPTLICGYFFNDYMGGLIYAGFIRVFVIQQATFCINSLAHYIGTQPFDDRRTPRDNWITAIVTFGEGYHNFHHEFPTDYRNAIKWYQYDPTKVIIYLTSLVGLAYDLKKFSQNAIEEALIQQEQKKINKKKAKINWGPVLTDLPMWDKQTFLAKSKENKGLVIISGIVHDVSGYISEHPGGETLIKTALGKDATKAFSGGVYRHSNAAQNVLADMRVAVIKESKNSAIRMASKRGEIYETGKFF
Summary of the method: as §1

SCD5 = biological target: T3, SCD5 (Homo sapiens, UniProt Q86SK9); assay: Growth inhibition of humanized yeast strain expressing SCD5 as sole desaturase; format: cell-based; settings: humanized yeast strain expressing SCD5
T3 construct: host or cells: S. cerevisiae ole1Δ strain (W303 pdr1Δ pdr3Δ background), plasmid pRS316 with TDH3 promoter and CYC1 terminator
T3 sequence (Q86SK9 1-330): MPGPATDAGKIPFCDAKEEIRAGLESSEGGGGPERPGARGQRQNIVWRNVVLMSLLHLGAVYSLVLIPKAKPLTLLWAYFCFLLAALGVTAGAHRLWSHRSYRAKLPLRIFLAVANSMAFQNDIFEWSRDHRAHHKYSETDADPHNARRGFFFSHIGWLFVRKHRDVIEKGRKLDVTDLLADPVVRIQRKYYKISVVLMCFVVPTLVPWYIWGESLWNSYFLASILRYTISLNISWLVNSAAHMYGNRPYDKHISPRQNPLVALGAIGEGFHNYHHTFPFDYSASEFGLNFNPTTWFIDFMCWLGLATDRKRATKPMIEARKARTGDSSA
Summary of the method: as §1

Row | Compound | IC50 (SCD1) | SCD1 % Max Inhibition (SCD1) | EC50 [1] | Emax [1] | IC50 (Ole1) | OLE1 % Max Inhibition (Ole1) | IC50 (SCD5) | SCD5 % Max Inhibition (SCD5)
1 | Cc1nn(C)c2cc(-c3noc(C4CCN(C(=O)CNC(=O)c5ccccc5)CC4)n3)ncc12 [Compound 114] | > 45 µM | 74.54% | 17.3 µM | 373% | > 45 µM | 90.17% | > 45 µM | 77.66%
2 | Cc1nn(C)c2nc(-c3noc(C4CCN(C(=O)CNC(=O)c5ccccc5)CC4)n3)ccc12 [Compound 115] | > 45 µM | 77.36% | 0.887 µM | 326% | > 45 µM | 101.68% | > 45 µM | 77.85%
3 | Cc1nn(C)c2nc(-c3noc(C4CCN(C(=O)C5CC(=O)N(c6ccccc6)C5)CC4)n3)ccc12 (stereo not shown) [Compound 116] | > 45 µM | 71.12% | 9.04 µM | 345% | > 45 µM | 12.75% | > 45 µM | 8.35%
4 | Cc1nn(C)c2ccc(-c3noc(C4CCN(C(=O)N5CCCCC5)CC4)n3)cc12 [Compound 117] | > 45 µM | 95.94% | 7.5 µM | 124% | > 45 µM | 92.97% | 36.1 µM | 54.63%
5 | CCOc1cnc(-c2noc(C3CCN(C(=O)C4CC(=O)N(c5ccccc5)C4)CC3)n2)cc1OC (stereo not shown) [Compound 118] | > 45 µM | 93.37% | 15.7 µM | 65% | > 45 µM | 87.29% | 27.5 µM | 32.21%
6 | CCOc1ccc(-c2noc(C3CCN(C(=O)[C@H]4CC[C@H](c5ccccc5)N4)CC3)n2)cc1OC [Compound 119] | > 45 µM | 86.22% | 20.9 µM | 61% | > 45 µM | 111.86% | > 45 µM | 93.93%
7 | Cc1nn(C)c2cc(-c3noc(C4CCN(C(=O)C5CC(=O)N(c6ccccc6)C5)CC4)n3)ncc12 (stereo not shown) [Compound 120] | > 45 µM | 99.80% | 19.5 µM | 139% | > 45 µM | 119.08% | > 45 µM | 96.39%
8 | CCOc1cnc(-c2noc(C3CCN(C(=O)CNC(=O)c4ccccc4)CC3)n2)cc1OC [Compound 121] | > 45 µM | 94.06% | 15.5 µM | 388% | > 45 µM | 111.12% | > 45 µM | 98.38%
9 | Cn1c(=O)n(C)c2cc(-c3noc(C4CCN(C(=O)CNC(=O)c5ccccc5)CC4)n3)ccc21 [Compound 122] | > 45 µM | 92.73% | 0.139 µM | 414% | > 45 µM | 109.89% | > 45 µM | 90.04%
10 | Cn1c(=O)n(C)c2cc(-c3noc(C4CCN(C(=O)C5CC(=O)N(c6ccccc6)C5)CC4)n3)ccc21 (stereo not shown) [Compound 123] | > 45 µM | 73.59% | 0.069 µM | 343% | > 45 µM | 3.12% | > 45 µM | 9.69%
11 | COc1ccc(CN2CC(C(=O)N3CCC(c4nc(-c5ccc6c(C)nn(C)c6c5)no4)CC3)CC2=O)c(OC)c1 (stereo not shown) [Compound 124] | > 45 µM | 88.87% | 17.7 µM | 395% | > 45 µM | 4.55% | > 45 µM | 96.23%
